Measured values: US10759814B2, “Pharmaceutical compositions containing substituted polycyclic pyridone derivatives and prodrug thereof” (priority 2016, dated 2020)
Where “and” joins values, the source holds several entries; their conditions need not be identical. Equal entries are not always repeated. Where two headings read alike, the source gives them in different places.

What was measured:
influenza virus [1] = format: in vivo, human
[2] = format: in vivo, human; conditions: Compound II-6 single 40 or 80 mg; Oseltamivir 75 mg twice a day for 5 days
Description: (4) Incidence of side effects
(4) Incidence of Side Effects
The number of side-effect episodes and the number of patients with side effect were counted for each administration group.

[3] = format: in vivo; conditions: after oral administration of Compound II-6 to rat under non-fasting conditions
Description: FIG. 1 is a result of measuring the plasma concentration of Compound III-2, after oral administration of prodrug Compound II-6, the parent compound of which is Compound III-2, to rat under non-fasting conditions.
FIG. 2 is a result of measuring the plasma concentration of Compound II-6, after oral administration of prodrug Compound II-6, the parent compound of which is Compound III-2, to rat under non-fasting conditions.
Test Example 13: Transition of Plasma Concentration
The plasma concentration of Compound III-2 and Compound II-6 after oral administration of prodrug Compound II-6, the parent compound of which was Compound III-2, to rat under non-fasting conditions was measured.

influenza virus [4] = assay: Clinical test (Test Example 15): time to alleviation of influenza symptoms; conditions: for Time to alleviation of influenza symptoms, difference from placebo / Time to alleviation of influenza symptoms, hazard ratio (Cox proportional hazard model relative to placebo) / Time to alleviation of influenza symptoms, median value: ITTI; for Time to alleviation of influenza symptoms, median value: influenza patients 20 to <65 years old; for Time until cough symptom is alleviated, median value / Time until fatigue symptom is alleviated, median value / Time until feverishness or chills symptom is alleviated, median value / Time until headache symptom is alleviated, median value / Time until muscular or joint pain symptom is alleviated, median value / Time until nasal congestion symptom is alleviated, median value / Time until sore throat symptom is alleviated, median value: patients with symptom moderate or severe at baseline
Description: Test Example 15: Clinical Test
As for the primary endpoint, subjects made evaluations by themselves on a 4-point scale [0: none, 1: mild, 2: moderate, 3: severe] concerning the time to alleviation of influenza symptoms (the time from the beginning of administration of the investigational drug until 7 influenza symptoms (“cough”, “sore throat”, “headache”, “nasal congestion”, “feverishness or chills”, “muscular or joint pain”, and “fatigue”) were alleviated) to evaluate the efficacy of the investigational drug over the placebo.
Patients who satisfied all of the following criteria were selected as subjects.
(a) Male or female patients at 20 years old or older and younger than 65 years old
(b) Patients satisfying all of the following criteria and diagnosed with influenza virus infectious disease
The main efficacy endpoint is the time to alleviation of influenza symptoms (the time to alleviation of influenza symptoms).
It is the time from the beginning of administration until alleviation of influenza symptoms. Alleviation of influenza symptoms refers to when all 7 influenza symptoms (cough, sore throat, headache, nasal congestion, feverishness or chills, muscular or joint pain, fatigue) become “0: none” or “1: mild” in the patient diary that the subject keeps, and this condition continues at least 21.5 hours (24 hours—10%).
Secondary Efficacy Endpoint
The secondary efficacy endpoint is as follows.
(1) Time to Alleviation of Each Influenza Symptom
It is the time from the beginning of administration until alleviation of each influenza symptom. Alleviation of a symptom refers to when the target item becomes “0: none” or “1: mild”, and this condition continues at least 21.5 hours (24 hours—10%).
Analysis of Primary Endpoint
As for the time to alleviation of influenza symptoms, which is the primary endpoint, the primary analysis and the secondary analysis are described. In addition to the ITTI group, the primary analysis was also performed on the PPS group for sensitivity analysis. Other analyses were performed only on the ITTI group.
The hazard ratio, 95% confidence interval, and P value of each administered group relative to the placebo group were calculated by a Cox proportional hazard model using the time to alleviation of influenza symptoms as a response, the administered groups as fixed effects, and the current smoking habit and the total score of 7 influenza symptoms at baseline before administration, which are allocation factors, as covariates. In order to prevent an increase of the probability of type I error due to performing the test multiple times, the P value was adjuste d by the Hommel's method.
The placebo group and each investigational drug administered group were compared by stratified generalized Wilcoxon test using the time to alleviation of influenza symptoms as a response, the administered groups as explanatory variables, and the category (11 points or less, 12 points or more) of the total score of 7 influenza symptoms before administration and the smoking habit, which are allocation factors, as stratification factors.
Also, a Kaplan-Meier survival curve was drawn for each group to calculate the median time to alleviation of influenza symptoms and the 95% confidence interval thereof. The Greenwood's method was used for calculating the confidence interval.
Analysis of Secondary Endpoint
(1) Time Until Each Alleviation of Influenza Symptom
The same analysis as in the primary endpoint was performed, with the time until each alleviation of influenza symptom being regarded as a response. At this time, cases where the symptom before administration was “0: none” or “1: mild” were excluded from the analysis target.

[5] = Day 2 (24 hours later), 12 to <65 years old
[6] = Day 2 (24 hours later), 20 to <65 years old
[7] = Day 3 (48 hours later), 12 to <65 years old
[8] = Day 3 (48 hours later), 20 to <65 years old
[9] = Day 4 (72 hours later), 12 to <65 years old
[10] = Day 4 (72 hours later), 20 to <65 years old
[11] = Day 5 (96 hours later), 12 to <65 years old
[12] = Day 5 (96 hours later), 20 to <65 years old
[13] = Day 6 (120 hours later), 12 to <65 years old
[14] = Day 6 (120 hours later), 20 to <65 years old
[15] = Day 9 (192 hours later), 12 to <65 years old
[16] = Day 9 (192 hours later), 20 to <65 years old

SMILES: COC(=O)OCOc1c2n(ccc1=O)N([C@@H]1c3ccccc3SCc3c1ccc(F)c3F)[C@@H]1COCCN1C2=O [II-6]
- Time (median) to termination of viral shedding based on virus titer (influenza virus [1]; 12 to <65 years old): 24.0 h
- Time to termination of viral shedding, difference between groups vs placebo (influenza virus [1]; 12 to <65 years old): -72.0 h
- Time to termination of viral shedding, difference between groups vs Oseltamivir (influenza virus [1]; 20 to <65 years old): -48.0 h
- Amount of change in virus titer from baseline, mean (influenza virus [1]; [5]): −4.44 log10 [TCID50/mL]
- Proportion of patients having a positive influenza virus titer (influenza virus [1]; [5]): 47.8%
- Amount of change in virus titer from baseline, mean (influenza virus [1]; [6]): −4.39 log10 [TCID50/mL]
- Proportion of patients having a positive influenza virus titer (influenza virus [1]; [6]): 47.6%
- Amount of change in virus titer from baseline, mean (influenza virus [1]; [7]): −4.82 log10 [TCID50/mL]
- Proportion of patients having a positive influenza virus titer (influenza virus [1]; [7]): 21.5%
- Amount of change in virus titer from baseline, mean (influenza virus [1]; [8]): −4.78 log10 [TCID50/mL]
- Proportion of patients having a positive influenza virus titer (influenza virus [1]; [8]): 19.8%
- Amount of change in virus titer from baseline, mean (influenza virus [1]; [9]): −4.50 log10 [TCID50/mL]
- Proportion of patients having a positive influenza virus titer (influenza virus [1]; [9]): 16.7%
- Amount of change in virus titer from baseline, mean (influenza virus [1]; [10]): −4.46 log10 [TCID50/mL]
- Proportion of patients having a positive influenza virus titer (influenza virus [1]; [10]): 16.1%
- Amount of change in virus titer from baseline, mean (influenza virus [1]; [11]): −4.95 log10 [TCID50/mL]
- Proportion of patients having a positive influenza virus titer (influenza virus [1]; [11]): 13.6%
- Amount of change in virus titer from baseline, mean (influenza virus [1]; [12]): −4.95 log10 [TCID50/mL]
- Proportion of patients having a positive influenza virus titer (influenza virus [1]; [12]): 13.0%
- Amount of change in virus titer from baseline, mean (influenza virus [1]; [13]): −4.58 log10 [TCID50/mL]
- Proportion of patients having a positive influenza virus titer (influenza virus [1]; [13]): 8.2%
- Amount of change in virus titer from baseline, mean (influenza virus [1]; [14]): −4.56 log10 [TCID50/mL]
- Proportion of patients having a positive influenza virus titer (influenza virus [1]; [14]): 5.6%
- Amount of change in virus titer from baseline, mean (influenza virus [1]; [15]): −5.06 log10 [TCID50/mL]
- Proportion of patients having a positive influenza virus titer (influenza virus [1]; [15]): 2.9%
- Amount of change in virus titer from baseline, mean (influenza virus [1]; [16]): −5.03 log10 [TCID50/mL]
- Proportion of patients having a positive influenza virus titer (influenza virus [1]; [16]): 3.0%
- Incidence of adverse events the causal relationship of which cannot be denied (patients) [2]: 4.4%
- plasma concentration of Compound II-6 [3]: a determination limit or less
- Time until cough symptom is alleviated, difference from placebo (influenza virus [4]; single oral 10 mg): -0.1 h
- Time until cough symptom is alleviated, hazard ratio (Cox model relative to placebo) (influenza virus [4]; single oral 10 mg): 0.941
- Time until fatigue symptom is alleviated, difference from placebo (influenza virus [4]; single oral 10 mg): -10.7 h
- Time until fatigue symptom is alleviated, hazard ratio (Cox model relative to placebo) (influenza virus [4]; single oral 10 mg): 0.783
- Time until feverishness or chills symptom is alleviated, difference from placebo (influenza virus [4]; single oral 10 mg): -4.1 h
- Time until feverishness or chills symptom is alleviated, hazard ratio (Cox model relative to placebo) (influenza virus [4]; single oral 10 mg): 0.635
- Time until headache symptom is alleviated, difference from placebo (influenza virus [4]; single oral 10 mg): -1.5 h
- Time until headache symptom is alleviated, hazard ratio (Cox model relative to placebo) (influenza virus [4]; single oral 10 mg): 0.803
- Time until muscular or joint pain symptom is alleviated, difference from placebo (influenza virus [4]; single oral 10 mg): -10.7 h
- Time until muscular or joint pain symptom is alleviated, hazard ratio (Cox model relative to placebo) (influenza virus [4]; single oral 10 mg): 0.77
- Time until nasal congestion symptom is alleviated, difference from placebo (influenza virus [4]; single oral 10 mg): -17.6 h
- Time until nasal congestion symptom is alleviated, hazard ratio (Cox model relative to placebo) (influenza virus [4]; single oral 10 mg): 0.742
- Time until sore throat symptom is alleviated, difference from placebo (influenza virus [4]; single oral 10 mg): 9.1 h
- Time until sore throat symptom is alleviated, hazard ratio (Cox model relative to placebo) (influenza virus [4]; single oral 10 mg): 1.312
- Time to alleviation of influenza symptoms, difference from placebo (influenza virus [4]; single oral 10 mg): -23.4 h
- Time to alleviation of influenza symptoms, hazard ratio (Cox proportional hazard model relative to placebo) (influenza virus [4]; single oral 10 mg): 0.758
- Time to alleviation of influenza symptoms, median value (influenza virus [4]; single oral 10 mg): 54.2 h
- Time until cough symptom is alleviated, median value (influenza virus [4]; single oral 10 mg): 31.1 h
- Time until fatigue symptom is alleviated, median value (influenza virus [4]; single oral 10 mg): 32 h
- Time until feverishness or chills symptom is alleviated, median value (influenza virus [4]; single oral 10 mg): 24.7 h
- Time until headache symptom is alleviated, median value (influenza virus [4]; single oral 10 mg): 42.2 h
- Time until muscular or joint pain symptom is alleviated, median value (influenza virus [4]; single oral 10 mg): 31.2 h
- Time until nasal congestion symptom is alleviated, median value (influenza virus [4]; single oral 10 mg): 25.2 h
- Time until sore throat symptom is alleviated, median value (influenza virus [4]; single oral 10 mg): 35.3 h
- Time until cough symptom is alleviated, difference from placebo (influenza virus [4]; single oral 20 mg): -1.4 h
- Time until cough symptom is alleviated, hazard ratio (Cox model relative to placebo) (influenza virus [4]; single oral 20 mg): 0.883
- Time until fatigue symptom is alleviated, difference from placebo (influenza virus [4]; single oral 20 mg): -11.5 h
- Time until fatigue symptom is alleviated, hazard ratio (Cox model relative to placebo) (influenza virus [4]; single oral 20 mg): 0.876
- Time until feverishness or chills symptom is alleviated, difference from placebo (influenza virus [4]; single oral 20 mg): 0.6 h
- Time until feverishness or chills symptom is alleviated, hazard ratio (Cox model relative to placebo) (influenza virus [4]; single oral 20 mg): 0.848
- Time until headache symptom is alleviated, difference from placebo (influenza virus [4]; single oral 20 mg): -6.7 h
- Time until headache symptom is alleviated, hazard ratio (Cox model relative to placebo) (influenza virus [4]; single oral 20 mg): 0.936
- Time until muscular or joint pain symptom is alleviated, difference from placebo (influenza virus [4]; single oral 20 mg): -12 h
- Time until muscular or joint pain symptom is alleviated, hazard ratio (Cox model relative to placebo) (influenza virus [4]; single oral 20 mg): 0.687
- Time until nasal congestion symptom is alleviated, difference from placebo (influenza virus [4]; single oral 20 mg): -21.3 h
- Time until nasal congestion symptom is alleviated, hazard ratio (Cox model relative to placebo) (influenza virus [4]; single oral 20 mg): 0.59
- Time until sore throat symptom is alleviated, difference from placebo (influenza virus [4]; single oral 20 mg): 1.5 h
- Time until sore throat symptom is alleviated, hazard ratio (Cox model relative to placebo) (influenza virus [4]; single oral 20 mg): 1.05
- Time to alleviation of influenza symptoms, difference from placebo (influenza virus [4]; single oral 20 mg): -26.6 h
- Time to alleviation of influenza symptoms, hazard ratio (Cox proportional hazard model relative to placebo) (influenza virus [4]; single oral 20 mg): 0.81
- Time to alleviation of influenza symptoms, median value (influenza virus [4]; single oral 20 mg): 51.0 h and 51 h
- Time until cough symptom is alleviated, median value (influenza virus [4]; single oral 20 mg): 29.8 h
- Time until fatigue symptom is alleviated, median value (influenza virus [4]; single oral 20 mg): 31.3 h
- Time until feverishness or chills symptom is alleviated, median value (influenza virus [4]; single oral 20 mg): 29.4 h
- Time until headache symptom is alleviated, median value (influenza virus [4]; single oral 20 mg): 37 h
- Time until muscular or joint pain symptom is alleviated, median value (influenza virus [4]; single oral 20 mg): 29.9 h
- Time until nasal congestion symptom is alleviated, median value (influenza virus [4]; single oral 20 mg): 21.6 h
- Time until sore throat symptom is alleviated, median value (influenza virus [4]; single oral 20 mg): 27.8 h
- Time until cough symptom is alleviated, difference from placebo (influenza virus [4]; single oral 40 mg): -6.6 h
- Time until cough symptom is alleviated, hazard ratio (Cox model relative to placebo) (influenza virus [4]; single oral 40 mg): 0.865
- Time until fatigue symptom is alleviated, difference from placebo (influenza virus [4]; single oral 40 mg): -11.7 h
- Time until fatigue symptom is alleviated, hazard ratio (Cox model relative to placebo) (influenza virus [4]; single oral 40 mg): 0.724
- Time until feverishness or chills symptom is alleviated, difference from placebo (influenza virus [4]; single oral 40 mg): -5.8 h
- Time until feverishness or chills symptom is alleviated, hazard ratio (Cox model relative to placebo) (influenza virus [4]; single oral 40 mg): 0.71
- Time until headache symptom is alleviated, difference from placebo (influenza virus [4]; single oral 40 mg): -5.8 h
- Time until headache symptom is alleviated, hazard ratio (Cox model relative to placebo) (influenza virus [4]; single oral 40 mg): 0.655
- Time until muscular or joint pain symptom is alleviated, hazard ratio (Cox model relative to placebo) (influenza virus [4]; single oral 40 mg): 0.657
- Time until nasal congestion symptom is alleviated, hazard ratio (Cox model relative to placebo) (influenza virus [4]; single oral 40 mg): 0.564
- Time until sore throat symptom is alleviated, difference from placebo (influenza virus [4]; single oral 40 mg): 5.6 h
- Time until sore throat symptom is alleviated, hazard ratio (Cox model relative to placebo) (influenza virus [4]; single oral 40 mg): 1.092
- Time to alleviation of influenza symptoms, difference from placebo (influenza virus [4]; single oral 40 mg): -28.2 h
- Time to alleviation of influenza symptoms, hazard ratio (Cox proportional hazard model relative to placebo) (influenza virus [4]; single oral 40 mg): 0.817
- Time to alleviation of influenza symptoms, median value (influenza virus [4]; single oral 40 mg): 49.5 h
- Time until cough symptom is alleviated, median value (influenza virus [4]; single oral 40 mg): 24.6 h
- Time until fatigue symptom is alleviated, median value (influenza virus [4]; single oral 40 mg): 31.1 h
- Time until feverishness or chills symptom is alleviated, median value (influenza virus [4]; single oral 40 mg): 23 h
- Time until headache symptom is alleviated, median value (influenza virus [4]; single oral 40 mg): 37.9 h
- Time until muscular or joint pain symptom is alleviated, median value (influenza virus [4]; single oral 40 mg): 25.4 h
- Time until nasal congestion symptom is alleviated, median value (influenza virus [4]; single oral 40 mg): 21.9 h
- Time until sore throat symptom is alleviated, median value (influenza virus [4]; single oral 40 mg): 31.9 h
